Measurements as given in US20030033616A1, “Imaging marker transgenes” (priority 2001, published 2003).

Experiments:
ScFv FITC on CHO cells = assay: Competition binding on CHO ScFv FITC-expressing cells; settings: in the presence of 1 nM 111In-DTPA-FITC as tracer
Experimental: Wild-type or ScFv FITC-expressing cells were plated at 3×10^4 cells/well in 96-well plates one day before binding experiments. […] Cells were gently agitated for 45 minutes at rt and then washed three times 250 ul/well PBS at 4 degrees C. […] For competition experiments, competitor compounds were diluted in 50 ul/well of PBS, 0.1% BSA and added first to washed wells containing cells as above. […] Incubations, washes and counting were performed as above.

[1] = system: FITC ScFv expressed on CHO cells; assay: FACS staining of CHO cells expressing FITC ScFv; type: binding
Experimental: (§1) Stable transfectants were isolated essentially as described (Mattheakis et al., 1999). All ScFv FITC expression constructs contain a neo resistance cassette. Primary G418-resistant populations were stained with mAb 179 labeled with fluorescein as follows. Antibody 179 was linked to fluorescein using fluorescein isothiocyanate (FITC, Molecular Probes, Eugene, Oreg.). This modified mAb 179 contained on average six fluoresceins per antibody molecule. Cells, ˜3-5×10^6, were resuspended in 500 μl of PBS, 0.1% BSA containing mAb 179-FITC at a final concentration of 8 μg/ml. Cells were rotated in the dark for 45 min, spun down, and subsequently resuspended in PBS and enrich sorted using a FACStar plus (Becton-Dickinson, San Jose, Calif.) based on the highest fluorescence. Enriched populations were cloned by limiting dilution and subsequently screened by ELISA. Briefly, 96well plates of clones were fixed with 200 μl per well of ice cold methanol for 10 min. Subsequent steps were done at room temperature (rt). Plates were blocked with PBS, 1% BSA for 30 min and then incubated with mAb 179, 1 μg/ml in PBS, 0.1% BSA for 1h. After 3 washes of 10 min each with PBS, wells were incubated with 1 μg/ml goat anti-mouse-HRP (Pierce, Rockford, Ill.) in PBS, 0.1% BSA for 1 h, washed with PBS three times as above, developed with a TMB peroxidase substrate colorometric assay ( Kirkegaard & Perry Laboratories, Gaithersburg, Md.) and the OD415 measured. Reactive clones were expanded, stained with mAb 179-fluorescein as above and analyzed using a FACScan (Becton-Dickinson, San Jose, Calif.) to choose those with the highest expression of the ScFv based on fluorescence. Clones were also analyzed by anti-179 Western blotting to verify the size of the ScFv protein expressed. ScFv-expressing clones were compared to wild-type CHO-K1 cells by FACScan using further reagents as follows in PBS, 0.1% BSA as above for mAb 179-fluorescein staining. FITC-BSA (Sigma, St. Louis, Mo.) was used at a final concentration of 20 μg/ml and DTPA-FITC and In-DTPA-FITC were each used at a final concentration of 2 μg/ml.

Wild-type CHO cells = assay: FACS staining of wild-type CHO cells; type: binding
Experimental: as §1

Molecule | IC50 (ScFv FITC on CHO cells) | Mean (fluorescence, FACS) ([1]; marker A11) | Median (fluorescence, FACS) ([1]; marker A11) | Mean (fluorescence, FACS) ([1]; marker M1) | Median (fluorescence, FACS) ([1]; marker M1) | Mean (fluorescence, FACS) (Wild-type CHO cells; marker A11) | Median (fluorescence, FACS) (Wild-type CHO cells; marker A11) | Mean (fluorescence, FACS) (Wild-type CHO cells; marker M1) | Median (fluorescence, FACS) (Wild-type CHO cells; marker M1)
O=C1OC2(c3ccccc31)c1cc(I)c(O)c(I)c1Oc1c2cc(I)c(O)c1I [erythrosine, reference compound] | 0.309 µM |  |  |  |  |  |  |  | 
Diethylenetriaminepenta-acetic acid (DTPA) coupled to fluorescein [DTPA-FITC] | 0.0118 µM | 100.62 | 90.58 | 98.06 | 91.40 | 13.89 | 7.99 | 8.24 | 7.84
